# Laboratory results as given in patent publication US20250019385A1, “SPIROCYCLIC ANNULATED 2-AMINO-3-CYANO THIOPHENES AND DERIVATIVES FOR THE TREATMENT OF CANCER” (Boehringer Ingelheim International GmbH, priority 2023, published 2025).
# Tested on: AsPC-1 cells
# Experiment: AsPC-1 CTG proliferation assay (120 h) (pancreatic cancer, G12D)
# Format: cell-based
# Conditions: Homo sapiens, ASPC1
# Procedure: (§1) AsPC-1 cells (ATCC CRL-1682) are dispensed into black 384-well plates, flat and clear bottom (Greiner, PNr. 781091) at a density of 500 cells per well in 60 μl RPMI ATCC-Formulation (PAN P04-18047)+10% FCS (fetal calf serum, HyClone, SH30084.03). Cells are incubated overnight at 37° C. in a humidified tissue culture incubator at 5% CO2. Compounds (10 mM stock in DMSO) are added at logarithmic dose series using the ECHO acoustic liquid handler system (Beckman Coulter), normalizing for added DMSO and including DMSO controls. All compound treatments are performed in technical duplicates. For the TO time point measurement, untreated cells are analyzed at the time of compound addition. Plates are incubated for 120 h, and cell viability is measured using CellTiter-Glo luminescent cell viability reagent (Promega product code G7570). Viability (stated as percent of control) is defined as relative luminescence units RLU of each well divided by the RLU of cells in DMSO controls. IC50 values are determined from viability measurements by non-linear regression using a four-parameter model.
# (§2) IC50 values of representative compounds according to the invention measured with these assays in the indicated cell lines are presented in Table 46.
row,SMILES,IC50 [nM]
1,CO[C@H]1C[C@@H](n2c(=O)n(C)c3c(O[C@@H](C)[C@@H]4CCCN4C)nc(-c4onc5c4CCC[C@@]54CCCc5sc(N)c(C#N)c54)nc32)C1 [I-31],1070
2,CCn1c(=O)n([C@@H]2CCCOC2)c2nc(-c3onc4c3CCC[C@@]43CCCc4sc(N)c(C#N)c43)nc(OCC3(CN4CCCC4)CC3)c21 [I-35],4250
3,C[C@H](Oc1nc(-c2onc3c2CCC[C@@]32CCCc3sc(N)c(C#N)c32)nc2c1n(C)c(=O)n2[C@@H]1CCOC1)[C@@H]1C[C@@H](F)CN1C [I-22],1090
4,C[C@H](Oc1nc(-c2onc3c2CCC[C@@]32CCCc3sc(N)c(C#N)c32)nc2c1n(C)c(=O)n2[C@@H]1CCOC1)[C@@H]1[C@@H](F)CCN1C [I-5],224
5,C[C@H](Oc1nc(-c2onc3c2CCC[C@@]32CCCc3sc(N)c(C#N)c32)nc2c1n(C)c(=O)n2[C@@H]1CCOC1)[C@@H]1C[C@H](F)CN1C [I-27],2300
6,CC(C)n1c(=O)n([C@@H]2CCOC2)c2nc(-c3onc4c3CCC[C@@]43CCCc4sc(N)c(C#N)c43)nc(O[C@@H](C)[C@@H]3CCCN3C)c21 [I-32],1500

# Tested on: NCI-H358 cells
# Experiment: NCI-H358 CTG proliferation assay (120 h) (NSCLC, G12C)
# Format: cell-based
# Conditions: Homo sapiens
# Procedure: as §1, with “NCI-H358” for “AsPC-1”, “No. CRL-5807)” for “CRL-1682)”, “200” for “500”, “RPMI-1640” for “RPMI”, “(Gibco #A10491)+10%” for “(PAN P04-18047)+10%”, “serum).” for “serum, HyClone, SH30084.03).”
# as §2
row,SMILES,IC50 [nM]
1,CO[C@H]1C[C@@H](n2c(=O)n(C)c3c(O[C@@H](C)[C@@H]4CCCN4C)nc(-c4onc5c4CCC[C@@]54CCCc5sc(N)c(C#N)c54)nc32)C1 [I-31],60
2,CCn1c(=O)n([C@@H]2CCCOC2)c2nc(-c3onc4c3CCC[C@@]43CCCc4sc(N)c(C#N)c43)nc(OCC3(CN4CCCC4)CC3)c21 [I-35],232
3,C[C@H](Oc1nc(-c2onc3c2CCC[C@@]32CCCc3sc(N)c(C#N)c32)nc2c1n(C)c(=O)n2[C@@H]1CCOC1)[C@@H]1C[C@@H](F)CN1C [I-22],7
4,C[C@H](Oc1nc(-c2onc3c2CCC[C@@]32CCCc3sc(N)c(C#N)c32)nc2c1n(C)c(=O)n2[C@@H]1CCOC1)[C@@H]1[C@@H](F)CCN1C [I-5],54
5,C[C@H](Oc1nc(-c2onc3c2CCC[C@@]32CCCc3sc(N)c(C#N)c32)nc2c1n(C)c(=O)n2[C@@H]1CCOC1)[C@@H]1C[C@H](F)CN1C [I-27],39
6,CC(C)n1c(=O)n([C@@H]2CCOC2)c2nc(-c3onc4c3CCC[C@@]43CCCc4sc(N)c(C#N)c43)nc(O[C@@H](C)[C@@H]3CCCN3C)c21 [I-32],32

# Tested on: NCI-H727 cells
# Experiment: NCI-H727 CTG proliferation assay (120 h) (lung cancer, G12V)
# Format: cell-based
# Conditions: Homo sapiens
# Procedure: as §1, with “NCI-H727” for “AsPC-1”, “No. CRL-5815)” for “CRL-1682)”
# as §2
row,SMILES,IC50 [nM]
1,CO[C@H]1C[C@@H](n2c(=O)n(C)c3c(O[C@@H](C)[C@@H]4CCCN4C)nc(-c4onc5c4CCC[C@@]54CCCc5sc(N)c(C#N)c54)nc32)C1 [I-31],38
2,CCn1c(=O)n([C@@H]2CCCOC2)c2nc(-c3onc4c3CCC[C@@]43CCCc4sc(N)c(C#N)c43)nc(OCC3(CN4CCCC4)CC3)c21 [I-35],159
3,C[C@H](Oc1nc(-c2onc3c2CCC[C@@]32CCCc3sc(N)c(C#N)c32)nc2c1n(C)c(=O)n2[C@@H]1CCOC1)[C@@H]1C[C@@H](F)CN1C [I-22],6
4,C[C@H](Oc1nc(-c2onc3c2CCC[C@@]32CCCc3sc(N)c(C#N)c32)nc2c1n(C)c(=O)n2[C@@H]1CCOC1)[C@@H]1[C@@H](F)CCN1C [I-5],18
5,C[C@H](Oc1nc(-c2onc3c2CCC[C@@]32CCCc3sc(N)c(C#N)c32)nc2c1n(C)c(=O)n2[C@@H]1CCOC1)[C@@H]1C[C@H](F)CN1C [I-27],21
6,CC(C)n1c(=O)n([C@@H]2CCOC2)c2nc(-c3onc4c3CCC[C@@]43CCCc4sc(N)c(C#N)c43)nc(O[C@@H](C)[C@@H]3CCCN3C)c21 [I-32],4

# Tested on: not listed separately
# Experiment: Metabolic (microsomal) stability assay, human liver microsomes (HLM)
# Format: in vitro ADME
# Conditions: 1 μM test compound, predicted clearance as percent of liver blood flow
row,SMILES,HLM QH [%]
1,CO[C@H]1C[C@@H](n2c(=O)n(C)c3c(O[C@@H](C)[C@@H]4CCCN4C)nc(-c4onc5c4CCC[C@@]54CCCc5sc(N)c(C#N)c54)nc32)C1 [I-31],<24
2,CCn1c(=O)n([C@@H]2CCCOC2)c2nc(-c3onc4c3CCC[C@@]43CCCc4sc(N)c(C#N)c43)nc(OCC3(CN4CCCC4)CC3)c21 [I-35],53
3,C[C@H](Oc1nc(-c2onc3c2CCC[C@@]32CCCc3sc(N)c(C#N)c32)nc2c1n(C)c(=O)n2[C@@H]1CCOC1)[C@@H]1C[C@@H](F)CN1C [I-22],56
4,C[C@H](Oc1nc(-c2onc3c2CCC[C@@]32CCCc3sc(N)c(C#N)c32)nc2c1n(C)c(=O)n2[C@@H]1CCOC1)[C@@H]1[C@@H](F)CCN1C [I-5],65
5,C[C@H](Oc1nc(-c2onc3c2CCC[C@@]32CCCc3sc(N)c(C#N)c32)nc2c1n(C)c(=O)n2[C@@H]1CCOC1)[C@@H]1C[C@H](F)CN1C [I-27],58
6,CC(C)n1c(=O)n([C@@H]2CCOC2)c2nc(-c3onc4c3CCC[C@@]43CCCc4sc(N)c(C#N)c43)nc(O[C@@H](C)[C@@H]3CCCN3C)c21 [I-32],88

# Tested on: SK-CO-1 cells
# Experiment: SK-CO-1 CTG proliferation assay (120 h) (CRC, G12V)
# Format: cell-based
# Conditions: Homo sapiens
# Procedure: as §1, with “SK—CO-1” for “AsPC-1”, “HTB-39)” for “CRL-1682)”, “EMEM (Sigma M5650)+10%” for “RPMI ATCC-Formulation (PAN P04-18047)+10%”
# as §2
row,SMILES,IC50 [nM]
1,CO[C@H]1C[C@@H](n2c(=O)n(C)c3c(O[C@@H](C)[C@@H]4CCCN4C)nc(-c4onc5c4CCC[C@@]54CCCc5sc(N)c(C#N)c54)nc32)C1 [I-31],94
2,CCn1c(=O)n([C@@H]2CCCOC2)c2nc(-c3onc4c3CCC[C@@]43CCCc4sc(N)c(C#N)c43)nc(OCC3(CN4CCCC4)CC3)c21 [I-35],185
3,C[C@H](Oc1nc(-c2onc3c2CCC[C@@]32CCCc3sc(N)c(C#N)c32)nc2c1n(C)c(=O)n2[C@@H]1CCOC1)[C@@H]1C[C@@H](F)CN1C [I-22],9
4,C[C@H](Oc1nc(-c2onc3c2CCC[C@@]32CCCc3sc(N)c(C#N)c32)nc2c1n(C)c(=O)n2[C@@H]1CCOC1)[C@@H]1[C@@H](F)CCN1C [I-5],47
5,C[C@H](Oc1nc(-c2onc3c2CCC[C@@]32CCCc3sc(N)c(C#N)c32)nc2c1n(C)c(=O)n2[C@@H]1CCOC1)[C@@H]1C[C@H](F)CN1C [I-27],55
6,CC(C)n1c(=O)n([C@@H]2CCOC2)c2nc(-c3onc4c3CCC[C@@]43CCCc4sc(N)c(C#N)c43)nc(O[C@@H](C)[C@@H]3CCCN3C)c21 [I-32],43
